Key:
[1] = tested on: human malignant melanoma cell line (A-375); test: Cytotoxicity in A-375 cells, CellTiter-Glo ATP viability, 48-h incubation; assay type: cell-based; conditions: for CC50 / cytotoxicity at 50 µM: Homo sapiens, 48 h; for CC50: A-375, 48 h, cytotoxic concentration that caused death of 50% cells; for CC50 / cytotoxicity at 50 µM / Cytotoxic activity in A-375 cells (in words): A-375 cells; for cytotoxicity at 50 µM: read-out: Primary Test Result (Cytotoxicity % at 50 µM in A-375 Cells); for Selectivity Index: ratio of CC50 in Hs27 fibroblasts over CC50 in A-375 melanoma cells; for Cytotoxic activity in A-375 cells (in words): SAR discussion
Experimental: (§1) Human malignant melanoma cell line A-375 was kindly provided by Prof. Marikki Laiho (University of Helsinki, Finland) and Hs27 human skin fibroblast cell line was kindly provided by Dr. Carmen Escobedo-Lucea (University of Helsinki, Finland). The cells were maintained in Glutamax high glucose Dulbecco’s Modified Eagle’s Medium (DMEM, Gibco), supplemented with 10% fetal bovine serum (FBS, Gibco), at 37 °C, 5% CO2.
(§2) The cells were seeded to white frame and clear bottom 96-well plates (Perkin Elmer) at the density of 10,000 cells/well for A-375 cell line and 7500 cells/well for Hs27 cell line. The cells were grown at 37 °C, 5% CO2 until they reached 70–80% confluence (approximately 24 h). Stock solutions of test compounds and a positive control (camptothecin, Sigma-Aldrich, Saint Louis, MO, USA) were prepared in DMSO and diluted into assay medium (growth medium with 5% FBS) to the final concentration. Final DMSO concentration was 0.5% in all samples. The culture medium was removed from the plate and compounds added, 200 µL/well. After 48-h incubation, the amount of ATP, which is directly proportional to the number of cells present in culture, was quantified using CellTiter-Glo® Luminescent Cell Viability kit (Promega, Madison, WI, USA), according to manufacturer’s instructions.
(§3) Origin Graphing and Analysis, version 8.6 (OriginLab, Northampton, MA, USA) was used for determination of CC50 values. The cancer cell selectivity index (SI) was calculated as a ratio of CC50 values between Hs27 fibroblasts and A-375 melanoma cells.

[2] = Cytotoxicity in Hs27 cells, CellTiter-Glo ATP viability, 48-h incubation; assay type: cell-based; conditions: human, Hs27 normal skin fibroblast cells, Hs27 normal fibroblasts
Experimental: as §1, §2, §3

[3] = tested on: A2780S, A2780CP (SCP5), A549, MCF7, U251MG cells and NIH3T3; design: method as in PMID 26711149; conditions: cited from earlier work
[4] = tested on: human cervical carcinoma HeLa cells; design: method as in doi:10.1016/j.tetlet.2010.07.016; conditions: cited from earlier work

For `CC[C@@]1(O)C(=O)OCc2c1cc1n(c2=O)Cc2cc3ccccc3nc2-1` [Camptothecin, reference compound], the CC50 [1] was 0.06 µM, the cytotoxicity at 50 µM [1] was 94.7% and the “Selectivity Index” value [1] was 92.3. The CC50 at 48 h [2] was 5.54 µM.
For `CNCCCOc1c(Br)cc(CCNC(=O)/C(Cc2cc(Br)c(OC)c(Br)c2)=N/O)cc1Br` [Compound 1, (E)-N-[3,5-Dibromo-4-[3-(methylamino)propoxy]phenethyl]-3-(3,5-dibromo-4-methoxyphenyl)-2-(hydroxyimino)propenamide], the “Selectivity between A-375 and Hs27 (in words)” value ([1]; A-375 vs Hs27) was “no selectivity”, the CC50 [1] was 4.3 µM and the cytotoxicity at 50 µM [1] was 97.9%. For the same compound, the “Selectivity Index” value [1] was 1.2, the “Cytotoxicity against various cancer cell lines and non-cancer NIH3T3 (in words)” value [3] was “cytotoxic” and the CC50 at 48 h [2] was 5.2 µM.
For `COc1c(Br)cc(C/C(=N\O)C(=O)NCCc2cc(Br)c(OCCCN)c(Br)c2)cc1Br` [Compound 3], the “Cytotoxic effect on HeLa cells (in words)” value [4] is given as “comparably strong cytotoxic effect”.
For `COc1c(Br)cc(C/C(=N\O)C(=O)NCCc2cc(Br)c(O)c(Br)c2)cc1Br` [Compound 4], the “Cytotoxic effect on HeLa cells (in words)” value [4] is given as “comparably strong cytotoxic effect”.
With `COc1c(Br)cc(C/C(=N\O)C(=O)NCCc2cc(Br)c(OCCCN(C)C)c(Br)c2)cc1Br` [Compound 29, (E)-N-[3,5-Dibromo-4-[3-(dimethylamino)propoxy]phenethyl]-3-(3,5-dibromo-4-methoxyphenyl)-2-(hydroxyimino)propanamide] the CC50 [1] was 6.3 µM, the cytotoxicity at 50 µM [1] was 99.9% and the “Selectivity Index” value [1] was 0.7. The CC50 at 48 h [2] was 4.5 µM.
In the case of `COc1c(Br)cc(C/C(=N\O)C(=O)Nc2ccc(Cl)c(Cl)c2)cc1Br` [Compound 30, (E)-3-(3,5-Dibromo-4-methoxyphenyl)-N-(3,4-dichlorophenyl)-2-(hydroxyimino)propanamide], the CC50 [1] is reported as 13.1 µM, the cytotoxicity at 50 µM [1] is reported as 101% and the “Selectivity Index” value [1] is reported as 1.2. The CC50 at 48 h [2] was 15.2 µM and the melting point was 198 °C (dec.).
With `COc1c(Br)cc(C/C(=N\O)C(=O)NCc2ccc(Cl)c(Cl)c2)cc1Br` [Compound 31, (E)-3-(3,5-Dibromo-4-methoxyphenyl)-N-(3,4-dichlorobenzyl)-2-(hydroxyimino)propanamide] the CC50 [1] was 12.4 µM, the cytotoxicity at 50 µM [1] was 99.7% and the “Selectivity Index” value [1] was 1.8. The CC50 at 48 h [2] was 22.3 µM.
With `COc1c(Br)cc(C/C(=N\O)C(=O)Nc2ccc(Cl)c(C(F)(F)F)c2)cc1Br` [Compound 32, (E)-N-[4-Chloro-3-(trifluoromethyl)phenyl]-3-(3,5-dibromo-4-methoxyphenyl)-2-(hydroxyimino) propanamide] the CC50 [1] was 10.3 µM, the cytotoxicity at 50 µM [1] was 99.8% and the “Selectivity Index” value [1] was 1.2. It also gave a CC50 at 48 h [2] of 12 µM.
In the case of `COc1ccc(NC(=O)/C(Cc2cc(Br)c(OC)c(Br)c2)=N/O)cc1Cl` [Compound 33, (E)-N-(3-Chloro-4-methoxyphenyl)-3-(3,5-dibromo-4-methoxyphenyl)-2-(hydroxyimino)propanamide], the CC50 [1] is reported as 13.5 µM, the cytotoxicity at 50 µM [1] is reported as 98.9% and the “Selectivity Index” value [1] is reported as 2.0. For the same compound, the CC50 at 48 h [2] was 26.4 µM.
In the case of `COc1ccc(NC(=O)/C(Cc2cc(Br)c(OC)c(Br)c2)=N/O)cc1Br` [Compound 34, (E)-N-(3-Bromo-4-methoxyphenyl)-3-(3,5-dibromo-4-methoxyphenyl)-2-(hydroxyimino)propanamide], the CC50 [1] is reported as 16.2 µM, the cytotoxicity at 50 µM [1] is reported as 100% and the “Selectivity Index” value [1] is reported as 1.4. For the same compound, the CC50 at 48 h [2] was 22.5 µM.
With `COc1c(Br)cc(C/C(=N\O)C(=O)Nc2cc(Cl)cc(Cl)c2)cc1Br` [Compound 35, (E)-3-(3,5-Dibromo-4-methxyphenyl)-N-(3,5-dichlorophenyl)-2-(hydroxyimino)propanamide] the CC50 [1] was 9.6 µM, the cytotoxicity at 50 µM [1] was 101% and the “Selectivity Index” value [1] was 1.3. It also gave a CC50 at 48 h [2] of 12.2 µM.
For `COc1c(Br)cc(C/C(=N\O)C(=O)Nc2ccccn2)cc1Br` [Compound 36, (E)-3-(3,5-Dibromo-4-methoxyphenyl)-2-(hydroxyimino)-N-(pyridin-2-yl)propanamide], the CC50 [1] was 4.7 µM, the cytotoxicity at 50 µM [1] was 84.7% and the “Selectivity Index” value [1] was 4.1. The CC50 at 48 h [2] was 19.4 µM and the melting point was 192 to 196 °C (dec.).
Work on `COc1c(Br)cc(C/C(=N\O)C(=O)Nc2cccnc2)cc1Br` [Compound 37, (E)-3-(3,5-Dibromo-4-methoxyphenyl)-2-(hydroxyimino)-N-(pyridin-3-yl)propanamide] yielded a CC50 [1] of 26.4 µM and a cytotoxicity at 50 µM [1] of 83.5%.
`COc1c(Br)cc(C/C(=N\O)C(=O)Nc2ccncc2)cc1Br` [Compound 38, (E)-3-(3,5-Dibromo-4-methoxyphenyl)2-(hydroxyimino)-N-(pyridin-4-yl)propanamide] gave a cytotoxicity at 50 µM [1] of 71.1%.
For `COc1c(Br)cc(C/C(=N\O)C(=O)NCc2cccnc2)cc1Br` [Compound 39, (E)-3-(3,5-Dibromo-4-methoxyphenyl)-2-(hydroxyimino)-N-(pyridin-3-ylmethyl)propanamide], the CC50 [1] was 22.1 µM, the cytotoxicity at 50 µM [1] was 93.2% and the “Cytotoxic activity in A-375 cells (in words)” value (“Cytotoxic activity” below) [1] was “retained the activity”.
In the case of `COc1c(Br)cc(C/C(=N\O)C(=O)Nc2ccc(N(C)C)cc2)cc1Br` [Compound 40, (E)-3-(3,5-Dibromo-4-methoxyphenyl)-N-[4-(dimethylamino)phenyl]-2-(hydroxyimino)propanamide], the CC50 [1] is reported as 27.8 µM and the cytotoxicity at 50 µM [1] is reported as 99.1%.
In the case of `COc1ccc(C/C(=N\O)C(=O)Nc2ccc(OC)c(Br)c2)cc1Br` [Compound 41, (E)-N,3-Bis(3-bromo-4-methoxyphenyl)-2-(hydroxyimino)propanamide], the CC50 [1] is reported as 19.8 µM, the cytotoxicity at 50 µM [1] is reported as 99.2% and the “Cytotoxic activity” value [1] is reported as “showed activity”.
In the case of `COc1ccc(C/C(=N\O)C(=O)Nc2ccccn2)cc1Br` [Compound 42, (E)-3-(3-Bromo-4-methoxyphenyl)-2-(hydroxyimino)-N-(pyridin-2-yl)propanamide], the cytotoxicity at 50 µM [1] is reported as 2.7%, the “Cytotoxic activity” value [1] is reported as “inactive” and the melting point is reported as 214 to 217 °C (dec.).
With `COc1ccc(C/C(=N\O)C(=O)NCc2ccc(Cl)c(Cl)c2)cc1` [Compound 43, (E)-N-(3,4-Dichlorobenzyl)-2-(hydroxyimino)-3-(4-methoxyphenyl)propanamide] the cytotoxicity at 50 µM [1] was 21.5%.
With `COc1ccc(C/C(=N\O)C(=O)Nc2ccccn2)cc1` [Compound 44, (E)-2-(Hydroxyimino)-3-(4-methoxyphenyl)-N-(pyridin-2-yl)propanamide] the cytotoxicity at 50 µM [1] was 0.4% and the “Cytotoxic activity” value [1] was “inactive”.
With `COc1ccc(C/C(=N\O)C(=O)Nc2ccccn2)cc1Cl` [Compound 45, (E)-3-(3-Chloro-4-methoxyphenyl)-2-(hydroxyimino)-N-(pyridin-2-yl)propanamide] the cytotoxicity at 50 µM [1] was 4% and the “Cytotoxic activity” value [1] was “inactive”.
